Values of other authors as cited in patent EP1239867B1, “METHODS FOR TREATING AND PREVENTING DAMAGE TO MUCOSAL TISSUE” (University of Southern California, priority 1999, dated 2005).
Square brackets hold non-standard residues; d marks the D form. Ends that are not written are not given here. Phe(4-NH2) = Nc1ccc(C[C@H](N)C(=O)O)cc1

Test system: AT2 receptor

Row | Substance | affinity for AT2 than AT1 (times higher) (selectivity AT2 over AT1, Speth and Kim, BBRC 169:997-1006 (1990)) | binding characteristics (in words) (experimental models of Catalioto et al. 1994, Bryson et al. 1992)
1 | Asp-Arg-Val-Tyr-Ile-His-Pro-Phe [AII] | 100 times | –
2 | Asp-Arg-Val-Tyr-Ile-Xaa-Pro-Phe (DRVYI[Phe(4-NH2)]PF) [p-aminophenylalanine6-AII] | – | comparable to AT2 antagonists
